# From patent US8614054B2, “Laser scanning cytometry mediated analysis of therapeutic efficacy in tumors” (Board of Regents, The University of Texas System, priority 2000, dated 2013)
# Experiments:
# [1] = system: tumor endothelial cells; experiment: LSC analysis of endothelial cell death (CD31/TUNEL double staining) in treated mouse tumors; format: in vivo; settings: mouse liver metastasis model, treated vs untreated tumors
# Excerpt: (§1) Tumor specimens or patient biopsies are obtained prior to and several time points post-treatment such as 1, 3, and 7 days or more. Tissue sections are stained using an immunofluorescent double-labeling technique which permits the simultaneous detection of endothelial cells and fluorescent markers of apoptosis such as TUNEL or caspase activity. The tissue sections are scanned by the LSC and cell data is collected by the instrument's software. For the first scan, the Wincyte software is setup by the user to contour on the cell nuclei based on propidium iodide staining. Contouring on the cell nuclei provides the total cell number of the tissue specimen and creates a ‘tissue map’ which permits selective gating of the tumor cells. In addition, contouring on the cell nuclei permits the software to identify endothelial cells (based on CD31 and/or CD34, Pharmingen, Inc., fluorescent staining) and/or TUNEL positive cells (based on fluorescent TUNEL, Promega, Inc.). […] A substantial increase in endothelial cell death post-treatment will indicate drug efficacy to induce apoptosis in tumor endothelial cells. Subsequent to endothelial cell death is the decay of the tumor vasculature. For the second scan, the Wincyte software is setup by the user to contour on the blood vessels of the tumor. The contouring is based on the fluorescence of the endothelial cell markers (CD31 and/or CD34). […]
# [2] = system: tumor vasculature; experiment: LSC-mediated blood vessel contouring (blood vessel density) in mouse tumors; format: in vivo; settings: treated mouse tumor, Cy5 label; untreated mouse tumor 52%
# Protocol: (§2) Blood vessel density is defined herein as the number of blood vessels as determined from analyzing the fluorescence emission of markers bound to the endothelial cells divided by the total number of cells in the tumor as determined from analyzing the fluorescence emission of markers bound to the cell nuclei. Endothelial cell density is measured because it is a more sensitive marker. Breaks in fluorescence of the endothelial cell stain will delimitate individual blood vessels.
# After the scan is complete, the gates are set on the scattergram so that the collected data can be analyzed. Relocation of a cell is used to visualize which cells are positive, i.e. CD31 and/or TUNEL positive. […] The data file can be replayed to obtain the number of cells in each quadrant that are representative of the total percent of all cells counted. […] For BVD, the instruments software is set to contour on CD31 fluorescence. […] The instrument then scans the same area but counts the number of blood vessels, i.e. a single vessel is counted by contiguous fluorescent light. […] BVD can be calculated for that sample by dividing the blood vessel count by the total number of tumor endothelial cells. Endothelial cell density is determined by dividing the total number of endothelial cells by the total number of tumor cells. […]
# [3] = system: breast tumor cells; settings: breast cancer patients, following neoadjuvant chemotherapy (FIG. 14)
# Protocol: FIGS. 14A-E—Biopsies taken from breast cancer patients pre and post-treatment (24, 48, 66 hours) following neoadjuvant chemotherapy were processed and stained for fluorescent TUNEL. The number of TUNEL positive cells were counted and results are represented as a percent of total cells counted. FIGS. 14F-H—Biopsies taken from breast cancer patients pre, 24, and 48 hours following neoadjuvant chemotherapy were processed and stained for fluorescent TUNEL. FIG. 14F—Representative image of tumor cell apoptosis in a human breast tumor biopsy pre- and post-chemotherapy (48 hrs.) before it is scanned by the LSC. […] FIG. 14G—Representative image of tumor cell apoptosis in a human breast tumor biopsy pre- and post-chemotherapy (48 hrs.) before it is scanned by the LSC. […] FIG. 14H—Bar graph showing the percent change in apoptotic tumor cells post-chemotherapy (24 & 48 hrs.).
# [4] = system: tumor endothelial cells; experiment: LSC analysis of tumor endothelial cell death in patient biopsies pre and post-treatment with endostatin; format: in vivo, human
# Excerpt: as §1
# [5] = system: tumor cells; experiment: LSC analysis of tumor cell death in patient biopsies pre and post-treatment with endostatin; format: in vivo, human; settings: for change in tumor cell death: pre vs post-treatment
# Excerpt: Tumor specimens or patient biopsies are obtained prior to and several time points post-treatment such as 1, 3, and 7 days or more. Tissue sections are stained using an immunofluorescent double-labeling technique which permits the simultaneous detection of endothelial cells and fluorescent markers of apoptosis such as TUNEL or caspase activity. The tissue sections are scanned by the LSC and cell data is collected by the instrument's software. For the first scan, the Wincyte software is setup by the user to contour on the cell nuclei based on propidium iodide staining. Contouring on the cell nuclei provides the total cell number of the tissue specimen and creates a ‘tissue map’ which permits selective gating of the tumor cells. In addition, contouring on the cell nuclei permits the software to identify endothelial cells (based on CD31 and/or CD34, Pharmingen, Inc., fluorescent staining) and/or TUNEL positive cells (based on fluorescent TUNEL, Promega, Inc.). […] A substantial increase in endothelial cell death post-treatment will indicate drug efficacy to induce apoptosis in tumor endothelial cells. Subsequent to endothelial cell death is the decay of the tumor vasculature. For the second scan, the Wincyte software is setup by the user to contour on the blood vessels of the tumor. The contouring is based on the fluorescence of the endothelial cell markers (CD31 and/or CD34). […] If the treatment targets the tumor vasculature, the number of blood vessels in the tumor will be dramatically lower post-treatment.
# Biopsies at different tumor sites were obtained from each of the five patients prior to and after treatment. The biopsies were stained with TUNEL and cy5 labeled antibody to CD31/[…]. […] FIGS. 8-9 represent LSC data from two of the patients. […] The data obtained from contouring on the blood vessels is shown in FIG. 12 where a representative image of blood vessel staining (CD31) is shown.
# This gives a difference of 0.23. The 95% CI for this difference is (0.00,0.47), p=0.050 and is significant.
# [6] = system: tumor vasculature; experiment: LSC-mediated blood vessel contouring (blood vessel density) of patient biopsies pre and post-treatment with endostatin; format: in vivo, human
# Protocol: as §2
# After the scan is complete, the gates are set on the scattergram so that the collected data can be analyzed. Relocation of a cell is used to visualize which cells are positive, i.e. CD31 and/or TUNEL positive. Visualization allows the gate on the scattergram to be moved so that the positive cells fall in the appropriate quadrant. The data file can be replayed to obtain the number of cells in each quadrant that are representative of the total percent of all cells counted. […] For BVD, the instruments software is set to contour on CD31 fluorescence. In Examples 2-7, this is by selecting the long red filter during the setup. The instrument then scans the same area but counts the number of blood vessels, i.e. a single vessel is counted by contiguous fluorescent light. […] BVD can be calculated for that sample by dividing the blood vessel count by the total number of tumor endothelial cells. Endothelial cell density is determined by dividing the total number of endothelial cells by the total number of tumor cells.
# Tumor specimens or patient biopsies are obtained prior to and several time points post-treatment such as 1, 3, and 7 days or more. Tissue sections are stained using an immunofluorescent double-labeling technique which permits the simultaneous detection of endothelial cells and fluorescent markers of apoptosis such as TUNEL or caspase activity. The tissue sections are scanned by the LSC and cell data is collected by the instrument's software. […] The contouring is based on the fluorescence of the endothelial cell markers (CD31 and/or CD34). […]
# [7] = system: endothelial cells; experiment: LSC quantification of endothelial cell density (ED) in tumor biopsies; format: in vivo, human; settings: following 56 days of treatment
# Protocol: FIGS. 17A-B—FIG. 17A Is a diagram showing the concept of quantifying endothelial cells in a tumor biopsy using the LSC. The LSC is used to count endothelial and tumor cells independently in a biopsy. Endothelial cell density (ED) is calculated by dividing the total number of endothelial cells by the total number of tumor cells. FIG. 17B Graph showing that Endostatin decreased ED 1.3 fold following 56 days of treatment.
# After the scan is complete, the gates are set on the scattergram so that the collected data can be analyzed. Relocation of a cell is used to visualize which cells are positive, i.e. CD31 and/or TUNEL positive. Visualization allows the gate on the scattergram to be moved so that the positive cells fall in the appropriate quadrant. The data file can be replayed to obtain the number of cells in each quadrant that are representative of the total percent of all cells counted. […] For BVD, the instruments software is set to contour on CD31 fluorescence. […] The instrument then scans the same area but counts the number of blood vessels, i.e. a single vessel is counted by contiguous fluorescent light. […] BVD can be calculated for that sample by dividing the blood vessel count by the total number of tumor endothelial cells. Endothelial cell density is determined by dividing the total number of endothelial cells by the total number of tumor cells.
compound,measurement,setting,value
Cc1[nH]c(/C=C2\C(=O)Nc3ccccc32)c(C)c1CCC(=O)O [SU6668],endothelial cell death,[1],significant endothelial cell death
same,blood vessel density,[2],55%
CC(=O)O[C@H]1C(=O)[C@@]2(C)[C@H]([C@H](OC(=O)c3ccccc3)[C@]3(O)C[C@H](OC(=O)[C@H](O)[C@@H](NC(=O)c4ccccc4)c4ccccc4)C(C)=C1C3(C)C)[C@]1(OC(C)=O)CO[C@@H]1C[C@@H]2O [taxol],number of apoptotic tumor cells,[3],dramatic increase
endostatin,effect of dosing on tumor endothelial cell death,[4]; <60 mg vs >60 mg,not significant
same,apoptotic endothelial cells,"[4]; patients treated for two months, pre vs post-treatment (FIG. 11)",two out of four patients had a dramatic increase
same,difference in change of tumor cell death between doses,"[5]; >60 mg vs <60 mg, 95% CI (0.00,0.47), p=0.050, significant",0.23
same,change in tumor cell death,[5]; dose of <60 mg,0.02
same,change in tumor cell death,[5]; dose of >60 mg,0.26
same,apoptotic tumor cells,"[5]; patients treated for two months, pre vs post-treatment (FIG. 10)",two out of four patients had a dramatic increase
same,effect of dosing on blood vessel density,[6]; <60 mg vs >60 mg,not significant
same,blood vessel density,"[6]; Patient 1, treated for two months (FIG. 13)",dramatic decrease
same,BVD post-treatment,"[6]; patient biopsy post-treatment with endostatin, pre-treatment BVD 53%",28%
same,decrease of endothelial cell density (ED),[7],1.3 fold
